Compound in one experiment: O=[As]([O-])(O)O.[K+] [potassium arsenate]
Kind of experiment: thermal stability z-score vs DMSO; higher = more thermally stabilized by treatment. The following applies: HeLa; arsenate concentration 1 mM. Here is the method:
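Cellular thermal proteome profiling in HeLa cells treated with 1 mM arsenate for 1 h (DMSO pretreatment), heated to ten temperatures (37-66.3 °C). Soluble protein was quantified by TMT mass spectrometry relative to DMSO controls; the thermal stability score was transformed to a z-score; mean of n = 3 experiments.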

Compound in a further experiment: NC(=O)CCCCC1CCSS1 [lipoamide]
Described as above. To be noted: HeLa, lipoamide concentration 100 µM. Here is the method: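 Cellular thermal proteome profiling in HeLa cells. Cells were treated with 100 µM lipoamide for 1 h, with or without 1 mM arsenate for a further 1 h, then heated to ten temperatures (37-66.3 °C), and soluble protein was quantified by TMT mass spectrometry relative to 0.1% DMSO controls. The thermal stability score (sum of log2 fold changes minus the abundance score) was transformed to a z-score; mean of n = 3 experiments.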

Setting [1] is: arsenate co-treatment: 1 mM arsenate 1 h.

The record followed here is the supplement of paper PMC12463676, “Small-molecule dissolution of stress granules by redox modulation benefits ALS models” (Nature Chemical Biology, 2025).
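Further: each temperature applied for 3 min, abundance score taken as mean log2 fold change at the two lowest temperatures, z-score obtained by mean subtraction and division by SD.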

Sequence of UniProt Q9Y547 (Q9Y547 whole entry): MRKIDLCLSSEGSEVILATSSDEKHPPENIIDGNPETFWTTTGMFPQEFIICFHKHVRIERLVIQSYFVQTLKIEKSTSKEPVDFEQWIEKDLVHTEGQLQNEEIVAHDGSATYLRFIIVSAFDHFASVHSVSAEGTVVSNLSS
Sequence of UniProt Q9NZM3 (Q9NZM3 whole entry): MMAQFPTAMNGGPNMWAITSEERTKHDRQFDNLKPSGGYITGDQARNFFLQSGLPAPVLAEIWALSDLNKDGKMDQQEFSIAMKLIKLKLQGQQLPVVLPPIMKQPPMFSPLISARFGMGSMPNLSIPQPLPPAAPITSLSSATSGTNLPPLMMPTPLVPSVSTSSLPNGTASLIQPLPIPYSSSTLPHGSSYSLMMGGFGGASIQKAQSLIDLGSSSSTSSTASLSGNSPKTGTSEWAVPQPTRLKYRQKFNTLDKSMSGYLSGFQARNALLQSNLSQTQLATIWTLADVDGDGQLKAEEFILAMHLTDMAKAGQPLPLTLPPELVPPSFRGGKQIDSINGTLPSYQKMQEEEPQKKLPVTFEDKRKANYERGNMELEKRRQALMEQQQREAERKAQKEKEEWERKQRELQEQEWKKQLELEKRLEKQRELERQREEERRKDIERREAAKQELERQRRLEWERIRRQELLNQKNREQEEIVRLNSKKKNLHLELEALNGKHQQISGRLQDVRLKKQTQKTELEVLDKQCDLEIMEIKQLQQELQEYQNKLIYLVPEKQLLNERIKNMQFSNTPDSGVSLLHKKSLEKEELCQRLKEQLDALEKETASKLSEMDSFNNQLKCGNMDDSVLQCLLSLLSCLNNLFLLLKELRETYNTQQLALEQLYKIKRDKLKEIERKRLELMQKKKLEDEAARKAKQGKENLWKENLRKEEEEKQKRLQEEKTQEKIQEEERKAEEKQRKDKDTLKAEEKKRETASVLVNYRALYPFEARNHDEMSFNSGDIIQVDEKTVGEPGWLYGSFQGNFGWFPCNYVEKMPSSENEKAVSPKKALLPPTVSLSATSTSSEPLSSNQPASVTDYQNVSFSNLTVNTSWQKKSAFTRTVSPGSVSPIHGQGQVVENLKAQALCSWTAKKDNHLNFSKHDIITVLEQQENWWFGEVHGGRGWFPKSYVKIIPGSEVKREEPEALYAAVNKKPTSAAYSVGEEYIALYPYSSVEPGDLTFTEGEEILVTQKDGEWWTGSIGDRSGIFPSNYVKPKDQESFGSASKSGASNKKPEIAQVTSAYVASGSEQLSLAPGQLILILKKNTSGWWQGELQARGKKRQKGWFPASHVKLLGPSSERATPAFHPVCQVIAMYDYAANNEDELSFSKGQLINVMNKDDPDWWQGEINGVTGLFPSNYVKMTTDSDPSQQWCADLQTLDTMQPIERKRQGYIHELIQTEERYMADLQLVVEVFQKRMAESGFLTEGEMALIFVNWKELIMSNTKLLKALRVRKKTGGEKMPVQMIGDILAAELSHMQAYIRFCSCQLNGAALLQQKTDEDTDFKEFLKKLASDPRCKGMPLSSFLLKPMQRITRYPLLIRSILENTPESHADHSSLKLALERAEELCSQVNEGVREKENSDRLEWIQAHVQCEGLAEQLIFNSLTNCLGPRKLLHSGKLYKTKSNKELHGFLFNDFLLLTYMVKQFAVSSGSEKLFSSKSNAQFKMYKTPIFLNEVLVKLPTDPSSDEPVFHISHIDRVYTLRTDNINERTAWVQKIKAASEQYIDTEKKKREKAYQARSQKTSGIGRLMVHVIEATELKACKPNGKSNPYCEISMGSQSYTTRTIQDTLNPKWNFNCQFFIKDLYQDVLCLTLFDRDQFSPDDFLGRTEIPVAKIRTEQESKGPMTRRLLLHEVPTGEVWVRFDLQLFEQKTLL
Sequence of UniProt Q9BZQ8 (Q9BZQ8 whole entry): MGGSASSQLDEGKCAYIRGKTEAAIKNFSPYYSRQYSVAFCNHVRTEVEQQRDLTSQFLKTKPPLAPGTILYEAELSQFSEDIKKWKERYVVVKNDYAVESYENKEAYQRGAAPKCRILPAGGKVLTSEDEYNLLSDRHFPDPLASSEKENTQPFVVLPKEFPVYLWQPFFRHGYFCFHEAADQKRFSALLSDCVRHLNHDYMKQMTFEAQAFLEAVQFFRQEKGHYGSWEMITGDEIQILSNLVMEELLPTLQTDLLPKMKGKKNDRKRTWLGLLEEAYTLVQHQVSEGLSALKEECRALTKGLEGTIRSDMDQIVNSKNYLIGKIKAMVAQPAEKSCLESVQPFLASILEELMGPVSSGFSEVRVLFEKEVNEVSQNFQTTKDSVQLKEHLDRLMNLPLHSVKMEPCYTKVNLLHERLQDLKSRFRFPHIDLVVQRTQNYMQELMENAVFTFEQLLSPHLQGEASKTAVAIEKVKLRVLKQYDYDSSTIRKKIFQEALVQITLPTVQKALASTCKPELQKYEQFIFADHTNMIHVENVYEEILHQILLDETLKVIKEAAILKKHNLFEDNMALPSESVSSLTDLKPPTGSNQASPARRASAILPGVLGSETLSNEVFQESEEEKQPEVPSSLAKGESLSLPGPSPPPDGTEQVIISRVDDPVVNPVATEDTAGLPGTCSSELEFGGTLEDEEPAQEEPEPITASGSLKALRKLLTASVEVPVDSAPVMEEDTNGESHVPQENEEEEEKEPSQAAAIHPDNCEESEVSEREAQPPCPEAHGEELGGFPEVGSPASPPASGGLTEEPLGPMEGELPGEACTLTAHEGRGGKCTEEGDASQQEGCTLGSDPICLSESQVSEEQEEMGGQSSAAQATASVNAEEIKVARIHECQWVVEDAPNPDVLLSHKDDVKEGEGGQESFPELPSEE
Sequence of UniProt Q12907 (Q12907 whole entry): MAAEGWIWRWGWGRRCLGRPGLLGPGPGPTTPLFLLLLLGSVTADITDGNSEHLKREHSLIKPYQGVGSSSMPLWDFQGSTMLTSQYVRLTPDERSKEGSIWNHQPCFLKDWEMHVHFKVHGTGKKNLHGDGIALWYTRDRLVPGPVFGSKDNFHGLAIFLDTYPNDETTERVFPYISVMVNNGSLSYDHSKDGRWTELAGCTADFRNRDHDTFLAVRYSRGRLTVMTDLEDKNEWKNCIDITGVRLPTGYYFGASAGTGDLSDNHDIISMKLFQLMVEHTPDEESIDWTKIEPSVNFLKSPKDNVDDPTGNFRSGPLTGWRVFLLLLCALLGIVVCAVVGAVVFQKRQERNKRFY
Sequence of UniProt Q9Y608 (Q9Y608 whole entry): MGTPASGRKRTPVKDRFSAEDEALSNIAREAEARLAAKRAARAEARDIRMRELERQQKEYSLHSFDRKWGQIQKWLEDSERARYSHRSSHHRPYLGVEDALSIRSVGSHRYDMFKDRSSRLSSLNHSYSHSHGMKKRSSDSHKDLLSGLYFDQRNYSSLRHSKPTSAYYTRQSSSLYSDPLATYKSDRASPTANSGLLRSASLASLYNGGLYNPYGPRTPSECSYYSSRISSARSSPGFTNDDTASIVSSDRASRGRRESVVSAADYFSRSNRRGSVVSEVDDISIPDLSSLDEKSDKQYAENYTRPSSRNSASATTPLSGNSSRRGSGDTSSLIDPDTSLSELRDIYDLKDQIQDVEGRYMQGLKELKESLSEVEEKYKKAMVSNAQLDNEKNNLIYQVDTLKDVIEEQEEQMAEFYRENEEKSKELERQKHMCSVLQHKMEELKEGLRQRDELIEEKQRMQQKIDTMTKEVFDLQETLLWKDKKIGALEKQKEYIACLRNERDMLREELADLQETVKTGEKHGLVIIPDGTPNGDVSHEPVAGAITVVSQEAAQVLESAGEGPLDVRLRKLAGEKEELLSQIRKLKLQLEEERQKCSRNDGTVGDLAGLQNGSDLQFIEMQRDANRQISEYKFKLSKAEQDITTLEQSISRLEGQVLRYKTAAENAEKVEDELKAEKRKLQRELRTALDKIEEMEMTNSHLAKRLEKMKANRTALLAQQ
Sequence of UniProt P17844 (P17844 whole entry): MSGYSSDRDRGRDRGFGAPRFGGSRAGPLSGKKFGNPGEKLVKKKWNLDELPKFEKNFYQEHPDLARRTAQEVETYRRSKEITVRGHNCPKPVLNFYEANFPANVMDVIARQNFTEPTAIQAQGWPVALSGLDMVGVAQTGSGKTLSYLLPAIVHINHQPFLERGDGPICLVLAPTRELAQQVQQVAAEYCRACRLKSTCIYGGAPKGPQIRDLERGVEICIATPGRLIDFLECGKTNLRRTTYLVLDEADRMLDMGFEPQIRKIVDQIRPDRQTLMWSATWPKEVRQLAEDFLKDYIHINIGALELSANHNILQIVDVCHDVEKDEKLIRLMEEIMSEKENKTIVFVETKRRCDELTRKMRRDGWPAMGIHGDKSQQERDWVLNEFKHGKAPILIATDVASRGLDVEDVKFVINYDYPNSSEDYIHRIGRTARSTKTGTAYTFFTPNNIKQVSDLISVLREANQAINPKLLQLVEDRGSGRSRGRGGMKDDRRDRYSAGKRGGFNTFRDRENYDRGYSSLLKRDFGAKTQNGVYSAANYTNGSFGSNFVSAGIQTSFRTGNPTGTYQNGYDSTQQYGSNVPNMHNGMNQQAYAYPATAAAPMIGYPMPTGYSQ
Sequence of UniProt Q13356 (Q13356 whole entry): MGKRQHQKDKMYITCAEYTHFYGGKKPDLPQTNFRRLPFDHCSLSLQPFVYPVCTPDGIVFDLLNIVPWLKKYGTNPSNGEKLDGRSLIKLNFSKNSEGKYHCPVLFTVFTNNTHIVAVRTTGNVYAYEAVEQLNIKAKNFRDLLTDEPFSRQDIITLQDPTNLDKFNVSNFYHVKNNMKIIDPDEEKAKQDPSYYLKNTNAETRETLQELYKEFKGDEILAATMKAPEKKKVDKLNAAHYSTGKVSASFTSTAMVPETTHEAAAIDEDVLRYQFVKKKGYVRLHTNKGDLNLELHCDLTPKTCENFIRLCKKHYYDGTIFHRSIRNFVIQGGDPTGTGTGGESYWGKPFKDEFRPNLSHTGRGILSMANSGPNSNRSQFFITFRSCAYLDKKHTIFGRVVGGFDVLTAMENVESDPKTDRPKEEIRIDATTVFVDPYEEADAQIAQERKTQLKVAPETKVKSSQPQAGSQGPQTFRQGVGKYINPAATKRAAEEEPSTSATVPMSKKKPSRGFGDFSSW

Regarding RASSF8 (UniProt Q8NHQ8), the figures for the thermal stability z-score with potassium arsenate, in the experiment with lipoamide (setting [1]) and with lipoamide (arsenate co-treatment: none) were -0.0803, -0.0675 and -0.05, respectively.

Turning to DCAF6 (UniProt Q58WW2), the results for the thermal stability z-score in the experiment with potassium arsenate, with lipoamide (setting [1]) and in the experiment with lipoamide (arsenate co-treatment: none) were -0.72, -0.747 and -0.879, respectively.

For the target LMAN2 (UniProt Q12907), the thermal stability z-score in the experiment with potassium arsenate is 0.284; with lipoamide (setting [1]), -1.93; in the experiment with lipoamide (arsenate co-treatment: none), -1.77.

Turning to DDX5 (UniProt P17844), the thermal stability z-score was -1.9 with potassium arsenate, 0.954 with lipoamide (setting [1]) and 1.43 with lipoamide (arsenate co-treatment: none).

As for SLC6A6 (UniProt P31641), the thermal stability z-score with potassium arsenate was -0.649; in the experiment with lipoamide (setting [1]), -0.428; with lipoamide (arsenate co-treatment: none) it was -0.488.

For the target FAM129A (UniProt Q9BZQ8), the thermal stability z-score with potassium arsenate was 0.444; with lipoamide (setting [1]), -0.167; in the experiment with lipoamide (arsenate co-treatment: none), -0.0302.

Consider FIS1 (UniProt Q9Y3D6), for which the thermal stability z-score with potassium arsenate is -0.678; with lipoamide (setting [1]), -0.114; in the experiment with lipoamide (arsenate co-treatment: none), 0.595.

As for CARHSP1 (UniProt Q9Y2V2), the thermal stability z-score with potassium arsenate was -5.57; in the experiment with lipoamide (setting [1]) it was 0.147; with lipoamide (arsenate co-treatment: none), 0.812.

In the case of WDR5 (UniProt P61964), the thermal stability z-score worked out at 0.234 in the experiment with potassium arsenate, 1.18 with lipoamide (setting [1]) and 0.552 with lipoamide (arsenate co-treatment: none).

Take LRRFIP2 (UniProt Q9Y608): the thermal stability z-score in the experiment with potassium arsenate turned out to be 1.07; in the experiment with lipoamide (setting [1]), 1.31; with lipoamide (arsenate co-treatment: none), 1.11.

On to ANXA5 (UniProt P08758), for which the thermal stability z-score with potassium arsenate was found to be 0.601; in the experiment with lipoamide (setting [1]), 1.34; with lipoamide (arsenate co-treatment: none), 1.22.

As for BLZF1 (UniProt Q9H2G9), the thermal stability z-score with potassium arsenate was -0.103; in the experiment with lipoamide (setting [1]), -0.0966; with lipoamide (arsenate co-treatment: none), 0.122.

MESDC2 (UniProt Q14696): the thermal stability z-score with potassium arsenate is 0.346; in the experiment with lipoamide (setting [1]), -1.36; with lipoamide (arsenate co-treatment: none), -1.28.

For GADD45GIP1 (UniProt Q8TAE8), the thermal stability z-score in the experiment with potassium arsenate came out at 0.432; with lipoamide (setting [1]) it was 0.954; with lipoamide (arsenate co-treatment: none), 0.379.

Regarding ITSN2 (UniProt Q9NZM3), the results for the thermal stability z-score with potassium arsenate, with lipoamide (setting [1]) and in the experiment with lipoamide (arsenate co-treatment: none) were -0.725, -0.803 and -1.23, respectively.

For PML (UniProt P29590), the results for the thermal stability z-score with potassium arsenate, in the experiment with lipoamide (setting [1]) and with lipoamide (arsenate co-treatment: none) were 5.01, 1.95 and 0.537, respectively.

Consider MAPKAPK3 (UniProt Q16644), for which the thermal stability z-score in the experiment with potassium arsenate is -0.508; in the experiment with lipoamide (setting [1]), -0.203; in the experiment with lipoamide (arsenate co-treatment: none), -0.362.

As for CNP (UniProt P09543), the thermal stability z-score with potassium arsenate was -0.287; with lipoamide (setting [1]), 1.14; with lipoamide (arsenate co-treatment: none) it was 0.855.

Consider GLMN (UniProt Q92990), for which the figures for the thermal stability z-score with potassium arsenate, in the experiment with lipoamide (setting [1]) and with lipoamide (arsenate co-treatment: none) were -0.181, -0.559 and -0.296, respectively.

For the target NOA1 (UniProt Q8NC60), the thermal stability z-score with potassium arsenate was -0.0924; in the experiment with lipoamide (setting [1]), 0.222; with lipoamide (arsenate co-treatment: none) it was 0.0658.

Consider PPIL2 (UniProt Q13356), for which the thermal stability z-score with potassium arsenate was -0.223; with lipoamide (setting [1]), 0.057; with lipoamide (arsenate co-treatment: none) it was -0.0266.

For HSPB11 (UniProt Q9Y547), the thermal stability z-score was -0.48 in the experiment with potassium arsenate, -0.309 in the experiment with lipoamide (setting [1]) and 0.124 with lipoamide (arsenate co-treatment: none).

For the target CADM1 (UniProt Q9BY67), the values for the thermal stability z-score with potassium arsenate, with lipoamide (setting [1]) and with lipoamide (arsenate co-treatment: none) were 0.376, 0.995 and 0.905, respectively.
